From US20250326769A1, “HETEROAROMATIC MACROCYCLIC ETHER CHEMOTHERAPEUTIC AGENTS” (Nuvalent, Inc., priority 2022, published 2025)
Read-outs that look alike come from different tables or passages of the source.

Columns and labels:
[1] = target: Ba/F3 EML4-ALK v1 I1171N/D1203N (Homo sapiens (Human), UniProt Q9HC35+Q9UM73, D1203N/I1171N); test: Ba/F3 cell proliferation assay, EML4-ALK v1 I1171N/D1203N; format: cell-based; conditions: for IC50: Ba/F3 stable cells, 72 hours, CellTiter-Glo
Outline: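 Ba/F3 cells made IL-3-independent by retroviral EML4-ALK v1 I1171N/D1203N and selected with puromycin, then treated with 3-fold compound dilutions for 72 h. Viability by CellTiter-Glo luminescence; IC50 from four-parameter logistic fit.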

Ba/F3 ETV6-TRKB = Ba/F3 ETV6-TRKB (Homo sapiens, UniProt Q16620); test: Ba/F3 cell proliferation assay, ETV6-TRKB; format: cell-based
Ba/F3 ETV6-TRKB, sequence (Q16620 32-822 limits assumed, change not shown): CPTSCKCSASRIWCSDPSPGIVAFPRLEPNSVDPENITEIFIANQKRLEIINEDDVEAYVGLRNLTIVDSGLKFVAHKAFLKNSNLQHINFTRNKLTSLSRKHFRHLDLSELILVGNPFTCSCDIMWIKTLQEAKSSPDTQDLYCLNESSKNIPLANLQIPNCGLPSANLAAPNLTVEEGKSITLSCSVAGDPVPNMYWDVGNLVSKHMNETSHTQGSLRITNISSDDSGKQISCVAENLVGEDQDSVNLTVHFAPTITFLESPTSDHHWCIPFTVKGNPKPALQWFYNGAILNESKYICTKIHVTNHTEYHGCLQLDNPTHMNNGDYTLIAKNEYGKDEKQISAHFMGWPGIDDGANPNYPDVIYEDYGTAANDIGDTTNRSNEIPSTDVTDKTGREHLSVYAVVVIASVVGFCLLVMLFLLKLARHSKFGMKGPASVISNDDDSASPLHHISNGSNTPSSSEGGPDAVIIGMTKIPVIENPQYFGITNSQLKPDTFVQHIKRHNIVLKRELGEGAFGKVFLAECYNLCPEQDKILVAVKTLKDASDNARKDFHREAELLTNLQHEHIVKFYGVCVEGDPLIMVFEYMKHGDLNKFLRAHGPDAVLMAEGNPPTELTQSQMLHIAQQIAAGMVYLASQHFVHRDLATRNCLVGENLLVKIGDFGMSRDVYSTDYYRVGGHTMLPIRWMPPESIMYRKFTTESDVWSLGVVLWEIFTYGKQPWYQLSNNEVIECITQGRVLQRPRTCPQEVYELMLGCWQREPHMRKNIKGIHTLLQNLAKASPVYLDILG
Outline: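 Ba/F3 cells retrovirally transduced with ETV6-TRKB and selected for IL-3-independent growth with puromycin were treated with 3-fold compound dilutions for 72 h. Viability read by CellTiter-Glo luminescence; IC50 from percent inhibition by four-parameter logistic fit.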

ROS1 = ROS1 (Homo sapiens (Human), UniProt P08922); test: Biochemical kinase assay, ROS1-wt; conditions: apparent inhibitory constant, kinase domain, Morrison equation; read-out: ROS1-wt Ki^app
ROS1, sequence (P08922 1945-2222): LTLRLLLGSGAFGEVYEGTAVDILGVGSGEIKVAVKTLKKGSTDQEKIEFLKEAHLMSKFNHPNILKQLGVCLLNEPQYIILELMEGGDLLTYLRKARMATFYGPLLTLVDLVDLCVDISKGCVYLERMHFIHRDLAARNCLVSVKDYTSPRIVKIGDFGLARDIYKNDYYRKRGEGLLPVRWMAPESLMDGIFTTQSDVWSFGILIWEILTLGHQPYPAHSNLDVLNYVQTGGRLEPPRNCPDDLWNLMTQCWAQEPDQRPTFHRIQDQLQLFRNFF
Method: (§1) First, 250 nL of compound dissolved in DMSO (100-fold of the desired concentration) was dispensed into a 384-well plate. A 12.5 μL substrate solution containing ATP (2 mM) and fluorogenic phosphorylation substrate AQT0101 ([…] for ALK and ROS, AssayQuant) or AQT0104 (26 μM for TRKB, AssayQuant) in buffer (50 mM HEPES pH 7.5, […], 0.5 mM EGTA, 10 mM MgCl2) was added and mixed thoroughly. Then, a 12.5 μL kinase solution containing ALK (1.5 nM, Carna, 08-518), ALK I1171N/D1203N (4 nM, SignalChem, custom-made), ROS1 (0.6 nM, Carma, 08-163), ROS1-G2032R (0.5 nM, SignalChem, R14-121BG), or TRKB-wt (1.5 nM, SignalChem, N17-11G) kinase domains in buffer ([…] pH 7.5, 0.01% Brij-[…], 0.4 mg/mL BSA, 0.5 mM EGTA, and 10 mM MgCl2) was added and mixed thoroughly. The plate was sealed and read by SpectraMax Paradigm at λ=485 nm every 2 minutes for 120 minutes at 30° C. Initial rates of reaction (v) were calculated from the change in fluorescence intensity over time during the initial, linear portion of the reaction. Finally, apparent inhibitory constants (Ki^app) were determined from regression of v and I (inhibitor concentration) to Morrison Equation (E=enzyme concentration): […]
(§2) Compound potency can be interpreted by binning Ki^app values against the targets: bin A for high potency, Ki^app<50 nM; bin B for medium potency, 50 nM≤Ki^app<500 nM; and bin C for low potency, Ki^app≥500 nM. […] “nd” means not determined.

TRKB-wt = TRKB-wt (Homo sapiens (Human), UniProt Q16620); test: Biochemical kinase assay, TRKB-wt; conditions: apparent inhibitory constant, kinase domain, Morrison equation; read-out: TRKB-wt Ki^app
TRKB-wt, sequence (Q16620 538-807): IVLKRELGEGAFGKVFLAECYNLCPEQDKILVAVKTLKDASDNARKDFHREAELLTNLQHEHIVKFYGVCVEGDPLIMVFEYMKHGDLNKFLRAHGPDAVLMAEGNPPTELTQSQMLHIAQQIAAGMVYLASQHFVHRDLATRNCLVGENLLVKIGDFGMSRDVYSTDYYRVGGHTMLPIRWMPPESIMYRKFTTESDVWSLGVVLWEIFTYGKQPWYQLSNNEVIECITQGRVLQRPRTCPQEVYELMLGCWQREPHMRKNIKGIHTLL
Outline: (§3)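 Kinase domains (in enzyme solution: ALK I1171N/D1203N 4 nM, ROS1 0.6 nM, ROS1-G2032R 0.5 nM, TRKB 1.5 nM) were mixed with substrate solution holding 2 mM ATP and 26 μM AQT0101 (ALK, ROS1) or AQT0104 (TRKB). Initial rates from 120-min fluorescence kinetics at 30 °C were fitted to the Morrison equation (Ki^app).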

Ba/F3 EML4-ALK v1 I1171N = Ba/F3 EML4-ALK v1 I1171N (Homo sapiens (Human), UniProt Q9HC35+Q9UM73, I1171N); test: Ba/F3 cell proliferation assay, EML4-ALK v1 I1171N; format: cell-based; conditions: for IC50: Ba/F3 stable cells, 72 hours, CellTiter-Glo; for ETV6-TRKB / EML4-ALK v1 I1171N: TRKB selectivity, ratio of Ba/F3 IC50 values
Ba/F3 EML4-ALK v1 I1171N, sequence (Q9UM73 other isoform, or with tags, fused parts or gaps I1171N): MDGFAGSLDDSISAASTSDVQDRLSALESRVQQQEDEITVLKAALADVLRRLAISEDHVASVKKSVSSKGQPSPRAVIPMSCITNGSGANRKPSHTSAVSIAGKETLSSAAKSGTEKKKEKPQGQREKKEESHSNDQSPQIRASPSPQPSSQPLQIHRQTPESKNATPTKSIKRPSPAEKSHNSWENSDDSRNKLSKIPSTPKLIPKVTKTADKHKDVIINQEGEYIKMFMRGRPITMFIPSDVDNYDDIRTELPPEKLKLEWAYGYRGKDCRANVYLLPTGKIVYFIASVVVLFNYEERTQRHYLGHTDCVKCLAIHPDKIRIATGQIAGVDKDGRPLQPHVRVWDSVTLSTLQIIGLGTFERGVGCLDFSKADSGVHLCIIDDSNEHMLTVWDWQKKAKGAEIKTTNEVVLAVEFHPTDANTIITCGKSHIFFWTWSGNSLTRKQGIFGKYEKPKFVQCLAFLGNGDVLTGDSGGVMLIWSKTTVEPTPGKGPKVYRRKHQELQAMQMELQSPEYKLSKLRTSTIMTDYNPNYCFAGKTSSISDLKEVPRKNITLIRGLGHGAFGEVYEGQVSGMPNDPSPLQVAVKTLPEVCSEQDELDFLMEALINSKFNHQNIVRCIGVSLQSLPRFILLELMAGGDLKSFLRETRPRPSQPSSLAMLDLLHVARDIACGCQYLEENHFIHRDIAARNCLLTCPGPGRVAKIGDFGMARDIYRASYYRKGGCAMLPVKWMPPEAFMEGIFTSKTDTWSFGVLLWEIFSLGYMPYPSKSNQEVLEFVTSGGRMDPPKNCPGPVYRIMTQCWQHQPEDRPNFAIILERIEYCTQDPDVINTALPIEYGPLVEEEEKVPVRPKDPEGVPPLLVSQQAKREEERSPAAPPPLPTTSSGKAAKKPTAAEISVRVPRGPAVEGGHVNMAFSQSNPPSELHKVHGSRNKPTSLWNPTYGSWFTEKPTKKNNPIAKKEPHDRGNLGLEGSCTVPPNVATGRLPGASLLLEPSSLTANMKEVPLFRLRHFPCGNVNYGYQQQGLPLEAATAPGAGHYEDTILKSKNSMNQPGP
Outline: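 Ba/F3 cells stably transformed with retroviral EML4-ALK v1 I1171N, selected by IL-3 withdrawal and puromycin, grown IL-3-free. Compounds added as 3-fold dilution series, 72 h incubation; viability by CellTiter-Glo luminescence. IC50 from percent inhibition by four-parameter logistic fit, binned A/B/C.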

ROS1-G2032R = ROS1-G2032R (Homo sapiens (Human), UniProt P08922, G2032R); test: Biochemical kinase assay, ROS1-G2032R; conditions: apparent inhibitory constant, kinase domain, Morrison equation; read-out: ROS1-G2032R Ki^app
ROS1-G2032R, sequence (P08922 1945-2222 G2032R): as the sequence (P08922 1945-2222) above, with G88R counted along it
Method: as §1, §2

ALK I1171N/D1203N = ALK I1171N/D1203N (Homo sapiens (Human), UniProt Q9UM73, D1203N/I1171N); test: Biochemical kinase assay, ALK I1171N/D1203N; conditions: apparent inhibitory constant, kinase domain, Morrison equation; read-out: ALK-I1171N-D1203N Ki^app
ALK I1171N/D1203N, sequence (Q9UM73 1116-1392 I1171N/D1203N): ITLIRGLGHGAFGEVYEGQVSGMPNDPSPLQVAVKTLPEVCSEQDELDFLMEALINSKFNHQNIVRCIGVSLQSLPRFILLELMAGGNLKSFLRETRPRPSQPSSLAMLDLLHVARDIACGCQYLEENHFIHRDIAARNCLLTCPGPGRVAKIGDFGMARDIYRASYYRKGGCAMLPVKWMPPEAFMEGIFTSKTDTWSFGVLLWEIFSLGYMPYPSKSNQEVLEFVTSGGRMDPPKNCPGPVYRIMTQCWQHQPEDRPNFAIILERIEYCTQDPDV
Outline: as §3

[2] = TRKB selectivity, ratio of Ba/F3 IC50 values
[3] = Ba/F3 stable cells, 72 hours, CellTiter-Glo; read-out: ETV6-TRKB IC50

Ba/F3 EML4-ALK v1 I1171N/D1203N, sequence (Q9UM73 other isoform, or with tags, fused parts or gaps I1171N/D1203N): as the sequence (Q9UM73 other isoform, or with tags, fused parts or gaps I1171N) above, with D642N counted along it

Row | IC50 [1] | IC50 (Ba/F3 ETV6-TRKB; [3]) | Ki (ROS1) | Ki (TRKB-wt) | IC50 (Ba/F3 EML4-ALK v1 I1171N) | Ki (ROS1-G2032R) | Ki (ALK I1171N/D1203N) | SMILES | ETV6-TRKB / EML4-ALK v1 I1171N/D1203N [1, 2] | ETV6-TRKB / EML4-ALK v1 I1171N (Ba/F3 EML4-ALK v1 I1171N) | Selectivity for Ba/F3 EML4-ALK v1 I1171N-D1203N IC50 over Ba/F3 ETV6-TRKB IC50 ([1]; TRKB selectivity, ratio of Ba/F3 IC50 values, Table 6 bins) | IC50 (Ba/F3 ETV6-TRKB; read-out: ETV6-TRKB IC50; Ba/F3 stable cells, 72 hours, CellTiter-Glo)
1 | 0.05 to 0.5 µM | > 0.5 µM | < 0.05 µM | 0.05 to 0.5 µM | – | < 0.05 µM | < 0.05 µM | C[C@H]1Oc2cc(cnc2N)-c2c(c(C(=O)N3CCC3)nn2CC2CC2)Cc2cn(C)nc2-c2ccc(F)cc21 [Example 9, {(R)-22-amino-3-(cyclopropylmethyl)-16-fluoro-10-methyl-19-methyl-20-oxa-3,4,10,11,23-pentaazapentacyclo[19.3.1.0^2,^6.0^8,^12.0^13,^18]pentacosa-1(24),2(6),4,8,11,13,15,17,21(25),22-decaen-5-yl}(1-azetidinyl)methanone] | B (bin B for high selectivity, ratio≥10-fold but<30) | – | – | –
2 | > 0.5 µM | 0.05 to 0.5 µM | < 0.05 µM | – | 0.05 to 0.5 µM | < 0.05 µM | – | CCn1nc(C#N)c2c1-c1cnc(N)c(c1)O[C@H](C)c1cc(F)ccc1-c1nn(C)cc1C2 [Example 4, (R)-22-amino-3-ethyl-16-fluoro-10-methyl-19-methyl-20-oxa-3,4,10,11,23-pentaazapentacyclo[19.3.1.0^2,^6.0^8,^12.0^13,^18]pentacosa-1(24),2(6),4,8,11,13,15,17,21(25),22-decaene-5-carbonitrile] | D (bin D for low selectivity, ratio<1) | C (bin C for moderate selectivity, ratio≥1 but<10) | – | –
3 | 0.0001 to 0.05 µM | > 0.5 µM | – | ≥ 0.5 µM | 0.05 to 0.5 µM | – | < 0.05 µM | C[C@H]1Oc2cc(cnc2N)-c2c(c(C(=O)N(C)C)nn2CC2CC2)Cc2cccnc2-c2c(F)cc(F)cc21 [Example 45, N,N-dimethyl-(R)-23-amino-3-(cyclopropylmethyl)-15,17-difluoro-20-methyl-21-oxa-3,4,12,24-tetraazapentacyclo[20.3.1.0^2,^6.0^8,^13.0^14,^19]hexacosa-1(25),2(6),4,8(13),9,11,14,16, 18,22(26),23-undecaene-5-carboxamide] | A (bin A for very high selectivity, ratio≥30-fold) | B (bin B for high selectivity, ratio≥10-fold but<30) | – | –

The next lines start with the compound.

Row | SMILES | IC50 [1] | IC50 (Ba/F3 ETV6-TRKB; [3]) | Ki (ROS1) | Ki (TRKB-wt) | IC50 (Ba/F3 EML4-ALK v1 I1171N) | Ki (ROS1-G2032R) | Ki (ALK I1171N/D1203N) | ETV6-TRKB / EML4-ALK v1 I1171N/D1203N [1, 2] | ETV6-TRKB / EML4-ALK v1 I1171N (Ba/F3 EML4-ALK v1 I1171N) | Selectivity for Ba/F3 EML4-ALK v1 I1171N-D1203N IC50 over Ba/F3 ETV6-TRKB IC50 ([1]; TRKB selectivity, ratio of Ba/F3 IC50 values, Table 6 bins) | IC50 (Ba/F3 ETV6-TRKB; read-out: ETV6-TRKB IC50; Ba/F3 stable cells, 72 hours, CellTiter-Glo)
4 | Cc1nc2c(s1)Cc1c(c(C#N)nn1C(=O)N(C)C)-c1cnc(N)c(c1)O[C@H](C)c1cc(F)ccc1-2 [Example 58, N,N-dimethyl-(R)-22-amino-3-cyano-16-fluoro-10,19-dimethyl-20-oxa-9-thia-4,5,11,23-tetraazapentacyclo[19.3.1.0^2,^6.0^8,^12.0^13,^18]pentacosa-1(24),2(6),3,8(12),10,13,15,17,21(25),22-decaene-5-carboxamide] | 0.05 to 0.5 µM | > 0.5 µM | < 0.05 µM | 0.05 to 0.5 µM | 0.0001 to 0.05 µM | < 0.05 µM | < 0.05 µM | C (bin C for moderate selectivity, ratio≥1 but<10) | A (bin A for very high selectivity, ratio≥30-fold) | – | –
5 | C[C@H]1Oc2cc(cnc2N)-c2c(c(C#N)nn2CC2CC2)Cc2cccnc2-c2ccc(F)cc21 [Example 66, (R)-23-amino-3-(cyclopropylmethyl)-17-fluoro-20-methyl-21-oxa-3,4,12,24-tetraazapentacyclo[20.3.1.0^2,^6.0^8,^13.0^14,^19]hexacosa-1(25),2(6),4,8(13),9,11,14,16,18,22(26),23-undecaene-5-carbonitrile] | > 0.5 µM | – | < 0.05 µM | – | 0.05 to 0.5 µM | < 0.05 µM | – | – | – | – | –
6 | C[C@H]1Oc2cc(cnc2N)-c2c(nn(C)c2C#N)C(=O)c2cccnc2-c2ccc(F)cc21 [Example 49, (R)-23-amino-17-fluoro-4-methyl-20-methyl-7-oxo-21-oxa-4,5,12,24-tetraazapentacyclo[20.3.1.0^2,6.0^8,13.0^14,19]hexacosa-1(25),2,5,8(13),9,11.14,16,18,22(26),23-undecaene-3-carbonitrile] | 0.0001 to 0.05 µM | 0.05 to 0.5 µM | < 0.05 µM | 0.05 to 0.5 µM | 0.0001 to 0.05 µM | 0.05 to 0.5 µM | < 0.05 µM | A (bin A for very high selectivity, ratio≥30-fold) | A (bin A for very high selectivity, ratio≥30-fold) | AA (bin AA for the selectivity with the ratio≥30-fold) | –
7 | CCn1nc(C(=O)N(C)C)c2c1-c1cnc(N)c(c1)O[C@H](C)c1cc(F)ccc1-c1nn(C)cc1C2 [Example 7, N,N-dimethyl-(R)-22-amino-3-ethyl-16-fluoro-10-methyl-19-methyl-20-oxa-3,4,10,11,23-pentaazapentacyclo[19.3.1.0^2,6.0^8,12.0^13,18]pentacosa-1(24),2(6),4,8,11,13,15,17.21(25),22-decaene-5-carboxamide] | 0.0001 to 0.05 µM | 0.05 to 0.5 µM | < 0.05 µM | < 0.05 µM | 0.0001 to 0.05 µM | < 0.05 µM | < 0.05 µM | C (bin C for moderate selectivity, ratio≥1 but<10) | B (bin B for high selectivity, ratio≥10-fold but<30) | – | –
8 | C[C@H]1Oc2cc(cnc2N)-c2c(CC3CC3)nn(C(=O)N(C)C)c2Cc2cccnc2-c2ccc(F)cc21 [Example 20, (R)-5-(N,N-dimethylcarbamoyl)-3-(cyclopropylmethyl)-17-fluoro-20-methyl-21-oxa-4,5,12,24-tetraazapentacyclo[20.3.1.0^2,^6.0^8,^13.0^14,^19]hexacosa-1(25),2(6),3,8(13),9,11,14,16,18,22(26),23-undecaen-23-ylamine] | 0.0001 to 0.05 µM | – | – | 0.05 to 0.5 µM | 0.0001 to 0.05 µM | – | < 0.05 µM | A (bin A for very high selectivity, ratio≥30-fold) | A (bin A for very high selectivity, ratio≥30-fold) | – | 0.05 to 0.5 µM
9 | C[C@H]1Oc2cc(cnc2N)-c2c(c(C(=O)N(C)C)nn2C2CCC2)Cc2cn(C)nc2-c2ccc(F)cc21 [Example 35, N,N-dimethyl-(R)-22-amino-3-cyclobutyl-16-fluoro-10-methyl-19-methyl-20-oxa-3,4,10,11,23-pentaazapentacyclo[19.3.1.0^2,^6.0^8,^12.0^13,^18]pentacosa-1(24),2(6),4,8,11,13,15,17,21(25),22-decaene-5-carboxamide] | 0.0001 to 0.05 µM | > 0.5 µM | – | 0.05 to 0.5 µM | 0.0001 to 0.05 µM | – | < 0.05 µM | A (bin A for very high selectivity, ratio≥30-fold) | A (bin A for very high selectivity, ratio≥30-fold) | – | –
